Data from patent US6911527B1, “HIV related peptides” (The United States of America as represented by the …, priority 1999, dated 2005).

Legend:
[1] = system: binding of phagotope-specific antibodies to HIV-1; experiment: Displacement of binding of phagotope-specific antibodies to HIV-1 by phagotopes or peptides (ELISA); conditions: increasing concentrations of peptide
Procedure: FIG. 3. Phagotope-specific antibodies bind to HIV-1. a, ELISA reactivities of immunoaffinity purified antibodies with HIV-1. Antibodies were immunoaffinity purified from LTNP serum 6090 using single phagotopes as ligands and tested for ELISA reactivity against HIV-1 virions by using a standard ELISA kit (Organon). Purified antibodies were tested at 5-10 ng/ml; HIV-negative (CS) and serum 6090 (HIV-1S) were tested at 1:100 dilution. Data are expressed as mean±SEM of four independent determinations. b, The binding of phagotope-specific antibodies to HIV-1 is specifically displaced by the related phagotopes. ELISA reactivities of single immunopurified antibodies to HIV-I were tested in the presence of the indicated concentrations of p195 (▪), p197 (♦), p217 (●), p287 (▴), p335(▾). […] ELISA reactivities of single immunoaffinity purified antibodies with the related phagotopes were tested in the presence of increasing concentrations of peptides 195 (▪), 197 (▴), 217 (♦), 287 (ρ), 335 (●). d, HIV-1 immunoblotting with phagotope-specific human antibodies. Immunoffinity purified antibodies were tested at 60 ng/ml for binding to HIV-1 proteins in Western blot by a diagnostic kit (Cambridge Biotech.); 6090 LTNP serum was tested at 1:1000 dilution.
The phagotope specific antibodies, purified from serum to IgG concentrations of 5-10 ng/ml, recognized HIV-1 proteins by ELISA (FIG. 3a); this reactivity was specifically displaced by the related phagotopes, but not by wild-type or unrelated phages (FIG. 3b and data not shown).

[2] = system: serum antibodies of HIV-1-infected subjects; experiment: ELISA reactivity of phagotopes with human sera (LTNP, AIDS, HIV-negative); assay type: binding; conditions: for antibody titers to phagotope in sera from LTNPs versus AIDS patients: p<0.05, one-sided Student's t test
Text: FIG. 1. ELISA reactivities of HIV-specific phagotopes. a, LTNP and AIDS subjects were selected as reported (Pantaleo et al., N. Engl. J Med 332:209 (1995)). HIV-specific phagotopes were identified from RPL pVIII9aa-cys (selection 1), or pVIII9aa (selection 2) by serial steps of screening and phage colony purification as described in the Methods section. Results are expressed as fold increase of the average values of the phagotopes over values of the wild-type phages. Values were considered positive when at least four-fold higher than the background signal of wild-type phage. Average values of at least four independent assays are shown as <4; 4<<10; 10.1<<20; >20. The far right column indicates the recognition frequency of positive sera by each phagotope (f). The percentages of significant phage reactivity in the HIV-positive and control groups were compared using the Fisher Exact Test; p values (p<0.001) were adjusted for multiple testing using the Bonferroni method. b, Comparison of ELISA reactivities of phagotopes with sera of LTNP (hatched bars) versus AIDS subjects (black bars). Data are expressed as mean±SEM of fold increase for each phagotope. Statistical analysis was performed according to the one-sided Student's t test; asterisks indicate p<0.05.
To validate that the bound phagotopes carry HIV-specific epitopes, positive colonies were tested by ELISA for reactivity with sera from multiple HIV-infected individuals and counter-screened with an equivalent number of sera from HIV-negative subjects. For the EJISA analysis, microtiter plates were coated with anti M13 antibody (Pharmacia, Piscataway, N.J.) at 10 μg/ml overnight at 4° C. in coating buffer. Fifty μl of cleared phage supernatant with an equal volume of blocking buffer were incubated for 1 h at 37° C. Plates were washed extensively and supplemented with human serum at 1:100 dilution followed by an overnight incubation at 4° C. After washing, wells were coated with an anti-human (Fc-specific) alkaline phosphatase-conjugated antibody. Plates were washed and developed. Results were expressed as the difference between OD405 nm and OD620 nm by an ELISA reader.

[3] = ELISA reactivities of engineered (modified) peptide epitopes; assay type: binding
Procedure: The amino acid sequences of modifed peptides generated in this manner are as follows: • P195 analog: […] (SEQ ID NO: 14) • P197 analog: […] (SEQ ID NO:15) • P217 analog: […] (SEQ ID NO:16) • P287 analog: […] (SEQ ID NO: 17) • P335 analog: CSGRLYCHESWC (SEQ ID NO:18) • P54 analog: TKTLIYQGA (SEQ ID NO:19) The engineered eptiopes are then determined to be immunogenic as described in Example 4-6.

[4] = system: sera of SHIV-infected monkeys; experiment: ELISA reactivity of monkey sera with HIV-specific phagotopes; assay type: binding, macaques; conditions: nine SHIV-infected monkeys
Procedure: FIG. 4. ELISA reactivities of monkey sera with HIV-specific phagotopes. Sera of naive monkeys (SHIV Negative) and SHIV-infected animals were tested for binding to HIV-1 phagotopes. Results are expressed as fold increase of OD405 nm values of tested phagotope over the OD405 nm values of wild-type-phage. Cutoff values were set as detailed in the legend to FIG. 1a. All the pre-infection sera of SHIV-positive animals tested negative by ELISA (not shown). A125, 42C, E50 and AK98 are Rhesus macaques; 4138, 4150 and 79 are cynomologous macaques; these animals were infected with SHIVMD1 (Shibata et al., J. Infect. Dis. 176:362 (1997)). 17860 and 17846 are pigtail macaques infected with SHIVMD14YE (Shibata et al., J. Infect. Dis. 176:362 (1997)).
In order to test this hypothesis, sera of nine SHIV-infected monkeys and of four uninfected control animals were tested for ELISA reactivity with the pool of HIV mimotopes. As in the case of HIV-1 infected subjects (FIG. 1a), sera of SHIV-infected monkeys recognized the HIV-1 phagotopes with variable frequencies (FIG. 4).

Row | Sequence | displacement of antibody binding to HIV-1 by peptides in solution [1] | ELISA reactivities compared with the original peptides displayed on the phagotopes [3] | also measured
1 | CCGCLTCSV [compound 287] | Only a partial competition |  | 
2 | CNGRLYCGP [p217] |  |  | recognition frequency (f) of positive sera by phagotope ([2]; 22 LTNP sera and 25 AIDS sera, serum 1:100, positive = at least four-fold over wild-type phage): 23%; antibody titers to phagotope in sera from LTNPs versus AIDS patients [2]: significantly higher in sera from LTNPs; ELISA reactivity with AIDS sera ([2]; pool of AIDS sera): completely unreactive
3 | CNGRLYCGP [peptide 217] | Only a partial competition |  | 
4 | CSGRLYCHESWC [P335 analog] |  | similar | 
5 | EGEFCCAGQLTCSVCGDPAK [P287 analog] |  | similar | 
6 | EGEFCCNGRLYCQPCGDPAK [P217 analog] |  | similar | 
7 | EGEFCKSSGKLISLCGDPAK [P195 analog] |  | similar | 
8 | EGEFCQTKLVCFAAAGDPAK [P197 analog] |  | similar | 
9 | GTKLVCFAA [compound 197] | effectively displaced |  | 
10 | KSSGKLISL [compound 195] | effectively displaced |  | 
11 | SGRLYCHESW [compound 335] | effectively displaced |  | 
12 | SGRLYCHESW [p335] |  |  | antibody titers to phagotope in sera from LTNPs versus AIDS patients [2]: significantly higher in sera from LTNPs
13 | TKTLIYGGA [p54] |  |  | ELISA reactivity with sera of SHIV-infected monkeys [4]: certain SHIV sera recognized
14 | TKTLIYQGA [P54 analog] |  | similar | 
